Molecular target: Serine/threonine-protein kinase 26 (Homo sapiens) (UniProt Q9P289)

Row | SMILES | ΔTm
1 | Nc1n[nH]c2nc3ccccc3nc12 [QUINOXALINE1] | 0.7 °C
2 | COc1nccc(-c2c(-c3ccc(F)cc3)ncn2[C@H]2CC[C@H](O)CC2)n1 | -1.4 °C
3 | CN(C)C[C@@H]1CCn2cc(c3ccccc32)C2=C(C(=O)NC2=O)c2cn(c3ccccc23)CCO1 [RUBOXISTAURIN] | -2 °C

Molecular target: Calcium/calmodulin-dependent protein kinase kinase 2 (Homo sapiens, UniProt Q96RR4)
Sequence (Q96RR4 2-588 limits assumed): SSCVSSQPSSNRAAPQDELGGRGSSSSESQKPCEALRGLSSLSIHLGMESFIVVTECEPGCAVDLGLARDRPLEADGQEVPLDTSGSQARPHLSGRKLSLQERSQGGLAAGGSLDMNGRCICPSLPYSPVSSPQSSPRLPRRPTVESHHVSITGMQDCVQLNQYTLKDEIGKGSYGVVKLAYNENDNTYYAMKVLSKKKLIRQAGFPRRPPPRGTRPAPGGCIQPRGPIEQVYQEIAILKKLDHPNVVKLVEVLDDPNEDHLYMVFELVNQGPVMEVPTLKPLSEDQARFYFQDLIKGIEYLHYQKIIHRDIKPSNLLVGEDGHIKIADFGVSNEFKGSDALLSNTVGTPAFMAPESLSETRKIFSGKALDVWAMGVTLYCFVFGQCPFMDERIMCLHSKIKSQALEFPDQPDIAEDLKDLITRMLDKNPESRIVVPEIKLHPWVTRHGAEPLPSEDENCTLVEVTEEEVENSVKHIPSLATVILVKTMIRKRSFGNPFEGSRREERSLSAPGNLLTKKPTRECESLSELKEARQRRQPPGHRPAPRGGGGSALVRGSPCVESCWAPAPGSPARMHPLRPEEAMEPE

Row | SMILES | ΔTm
4 | Nc1n[nH]c2nc3ccccc3nc12 [QUINOXALINE1] | 0.2 °C
5 | COc1nccc(-c2c(-c3ccc(F)cc3)ncn2[C@H]2CC[C@H](O)CC2)n1 | -0.6 °C
6 | CN(C)C[C@@H]1CCn2cc(c3ccccc32)C2=C(C(=O)NC2=O)c2cn(c3ccccc23)CCO1 [RUBOXISTAURIN] | 1.6 °C

Molecular target: Tyrosine-protein kinase JAK1 (Homo sapiens) (UniProt P23458)
Sequence (P23458 whole entry): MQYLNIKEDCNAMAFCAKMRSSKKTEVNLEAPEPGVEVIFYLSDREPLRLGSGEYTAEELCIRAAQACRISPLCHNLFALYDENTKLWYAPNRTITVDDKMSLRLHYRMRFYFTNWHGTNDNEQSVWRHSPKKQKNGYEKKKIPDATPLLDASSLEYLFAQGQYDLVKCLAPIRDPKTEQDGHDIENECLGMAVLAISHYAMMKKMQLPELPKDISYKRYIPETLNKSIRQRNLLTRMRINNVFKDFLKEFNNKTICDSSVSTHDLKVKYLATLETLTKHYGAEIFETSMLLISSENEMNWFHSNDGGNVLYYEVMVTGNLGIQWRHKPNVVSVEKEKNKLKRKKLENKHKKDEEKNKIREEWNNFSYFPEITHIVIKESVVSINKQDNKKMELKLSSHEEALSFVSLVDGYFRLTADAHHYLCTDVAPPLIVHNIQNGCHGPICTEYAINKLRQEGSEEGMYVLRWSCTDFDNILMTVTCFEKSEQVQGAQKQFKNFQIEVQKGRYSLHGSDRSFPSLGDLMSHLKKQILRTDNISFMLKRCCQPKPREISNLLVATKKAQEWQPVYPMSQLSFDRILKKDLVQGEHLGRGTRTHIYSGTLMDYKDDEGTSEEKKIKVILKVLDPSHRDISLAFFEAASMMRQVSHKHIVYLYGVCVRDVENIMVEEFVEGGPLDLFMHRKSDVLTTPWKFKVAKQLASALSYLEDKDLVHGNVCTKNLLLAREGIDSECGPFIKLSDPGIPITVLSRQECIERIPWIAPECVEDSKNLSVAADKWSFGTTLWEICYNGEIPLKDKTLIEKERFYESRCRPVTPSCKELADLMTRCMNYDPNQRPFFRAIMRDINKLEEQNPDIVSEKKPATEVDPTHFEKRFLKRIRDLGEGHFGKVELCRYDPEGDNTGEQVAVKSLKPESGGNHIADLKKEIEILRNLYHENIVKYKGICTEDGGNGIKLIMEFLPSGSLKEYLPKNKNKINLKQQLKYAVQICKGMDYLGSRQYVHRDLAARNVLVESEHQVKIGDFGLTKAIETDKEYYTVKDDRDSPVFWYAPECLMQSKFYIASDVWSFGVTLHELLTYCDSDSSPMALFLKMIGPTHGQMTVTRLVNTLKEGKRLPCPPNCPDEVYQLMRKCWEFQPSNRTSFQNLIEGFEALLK

Row | SMILES | ΔTm
7 | Nc1n[nH]c2nc3ccccc3nc12 [QUINOXALINE1] | 2.2 °C
8 | COc1nccc(-c2c(-c3ccc(F)cc3)ncn2[C@H]2CC[C@H](O)CC2)n1 | 0.8 °C
9 | CN(C)C[C@@H]1CCn2cc(c3ccccc32)C2=C(C(=O)NC2=O)c2cn(c3ccccc23)CCO1 [RUBOXISTAURIN] | -0.5 °C

Molecular target: T1, Serine/threonine-protein kinase 17A (Homo sapiens) (UniProt Q9UEE5)
T1 sequence (whole entry): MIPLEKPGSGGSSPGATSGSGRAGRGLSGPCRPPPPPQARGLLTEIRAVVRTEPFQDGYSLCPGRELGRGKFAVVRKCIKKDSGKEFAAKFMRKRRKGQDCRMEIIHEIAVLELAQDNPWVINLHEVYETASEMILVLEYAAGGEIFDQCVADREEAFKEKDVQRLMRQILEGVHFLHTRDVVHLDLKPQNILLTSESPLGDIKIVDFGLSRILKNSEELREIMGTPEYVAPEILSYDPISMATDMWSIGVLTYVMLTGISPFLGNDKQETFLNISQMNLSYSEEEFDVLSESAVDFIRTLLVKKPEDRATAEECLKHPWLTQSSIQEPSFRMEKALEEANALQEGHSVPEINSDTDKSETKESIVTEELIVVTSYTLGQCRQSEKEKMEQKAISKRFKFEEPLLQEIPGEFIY

Row | SMILES | ΔTm
10 | Nc1n[nH]c2nc3ccccc3nc12 [QUINOXALINE1] | 3.5 °C
11 | COc1nccc(-c2c(-c3ccc(F)cc3)ncn2[C@H]2CC[C@H](O)CC2)n1 | 0 °C
12 | CN(C)C[C@@H]1CCn2cc(c3ccccc32)C2=C(C(=O)NC2=O)c2cn(c3ccccc23)CCO1 [RUBOXISTAURIN] | -0.2 °C

Molecular target: cAMP-dependent protein kinase catalytic subunit alpha (Homo sapiens) (UniProt P17612)

Row | SMILES | ΔTm
13 | Nc1n[nH]c2nc3ccccc3nc12 [QUINOXALINE1] | 0.6 °C
14 | COc1nccc(-c2c(-c3ccc(F)cc3)ncn2[C@H]2CC[C@H](O)CC2)n1 | -0.8 °C

Molecular target: Serine/threonine-protein kinase pim-2 (Homo sapiens, UniProt Q9P1W9)
Sequence (Q9P1W9 whole entry, looked up): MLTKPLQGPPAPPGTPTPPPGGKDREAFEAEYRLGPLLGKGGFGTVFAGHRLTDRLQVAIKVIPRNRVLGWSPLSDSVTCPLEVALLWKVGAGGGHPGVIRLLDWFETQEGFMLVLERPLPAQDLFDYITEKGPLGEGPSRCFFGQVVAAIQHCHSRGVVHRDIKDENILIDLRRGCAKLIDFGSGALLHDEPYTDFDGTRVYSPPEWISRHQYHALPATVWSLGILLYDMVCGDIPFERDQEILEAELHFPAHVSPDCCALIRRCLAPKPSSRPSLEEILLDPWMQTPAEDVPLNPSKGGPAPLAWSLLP

Row | SMILES | ΔTm
15 | Nc1n[nH]c2nc3ccccc3nc12 [QUINOXALINE1] | 1.3 °C
16 | COc1nccc(-c2c(-c3ccc(F)cc3)ncn2[C@H]2CC[C@H](O)CC2)n1 | 0.5 °C
17 | CN(C)C[C@@H]1CCn2cc(c3ccccc32)C2=C(C(=O)NC2=O)c2cn(c3ccccc23)CCO1 [RUBOXISTAURIN] | 2.1 °C

Molecular target: Cyclin-dependent kinase 16 (Homo sapiens) (UniProt Q00536)

Row | SMILES | ΔTm
18 | Nc1n[nH]c2nc3ccccc3nc12 [QUINOXALINE1] | -0.1 °C
19 | COc1nccc(-c2c(-c3ccc(F)cc3)ncn2[C@H]2CC[C@H](O)CC2)n1 | 0.6 °C

Molecular target: Serine/threonine-protein kinase 10 (Homo sapiens) (UniProt O94804)
Sequence (O94804 whole entry, looked up): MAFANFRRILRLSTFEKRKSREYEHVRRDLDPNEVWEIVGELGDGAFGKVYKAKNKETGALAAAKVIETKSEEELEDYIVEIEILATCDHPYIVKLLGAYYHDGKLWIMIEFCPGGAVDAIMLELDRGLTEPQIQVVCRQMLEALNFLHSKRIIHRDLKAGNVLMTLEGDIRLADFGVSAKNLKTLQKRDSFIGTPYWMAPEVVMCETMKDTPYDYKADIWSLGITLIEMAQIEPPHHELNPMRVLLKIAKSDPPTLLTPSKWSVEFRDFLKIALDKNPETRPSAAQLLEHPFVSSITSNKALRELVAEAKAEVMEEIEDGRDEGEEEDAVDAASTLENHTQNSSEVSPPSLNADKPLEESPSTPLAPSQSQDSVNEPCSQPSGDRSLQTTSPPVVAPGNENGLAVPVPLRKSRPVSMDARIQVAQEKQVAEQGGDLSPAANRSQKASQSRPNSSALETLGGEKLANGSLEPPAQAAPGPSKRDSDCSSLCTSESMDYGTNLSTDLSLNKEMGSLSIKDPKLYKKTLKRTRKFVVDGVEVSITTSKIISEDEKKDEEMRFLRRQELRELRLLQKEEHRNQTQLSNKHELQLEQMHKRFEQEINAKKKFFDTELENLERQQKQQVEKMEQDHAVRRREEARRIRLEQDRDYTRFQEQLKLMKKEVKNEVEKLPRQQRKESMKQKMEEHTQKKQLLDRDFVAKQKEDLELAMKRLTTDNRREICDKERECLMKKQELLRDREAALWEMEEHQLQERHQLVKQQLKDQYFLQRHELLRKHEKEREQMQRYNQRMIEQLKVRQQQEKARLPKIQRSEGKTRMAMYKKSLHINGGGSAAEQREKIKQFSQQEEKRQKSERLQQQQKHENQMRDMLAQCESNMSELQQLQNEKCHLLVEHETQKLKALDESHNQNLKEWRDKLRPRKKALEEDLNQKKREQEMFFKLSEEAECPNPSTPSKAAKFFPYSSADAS

Row | SMILES | ΔTm
20 | Nc1n[nH]c2nc3ccccc3nc12 [QUINOXALINE1] | 1.6 °C
21 | COc1nccc(-c2c(-c3ccc(F)cc3)ncn2[C@H]2CC[C@H](O)CC2)n1 | 1.9 °C
22 | CN(C)C[C@@H]1CCn2cc(c3ccccc32)C2=C(C(=O)NC2=O)c2cn(c3ccccc23)CCO1 [RUBOXISTAURIN] | 7.2 °C

Molecular target: 5'-AMP-activated protein kinase catalytic subunit alpha-2 (Homo sapiens) (UniProt P54646)
Sequence (P54646 whole entry, looked up): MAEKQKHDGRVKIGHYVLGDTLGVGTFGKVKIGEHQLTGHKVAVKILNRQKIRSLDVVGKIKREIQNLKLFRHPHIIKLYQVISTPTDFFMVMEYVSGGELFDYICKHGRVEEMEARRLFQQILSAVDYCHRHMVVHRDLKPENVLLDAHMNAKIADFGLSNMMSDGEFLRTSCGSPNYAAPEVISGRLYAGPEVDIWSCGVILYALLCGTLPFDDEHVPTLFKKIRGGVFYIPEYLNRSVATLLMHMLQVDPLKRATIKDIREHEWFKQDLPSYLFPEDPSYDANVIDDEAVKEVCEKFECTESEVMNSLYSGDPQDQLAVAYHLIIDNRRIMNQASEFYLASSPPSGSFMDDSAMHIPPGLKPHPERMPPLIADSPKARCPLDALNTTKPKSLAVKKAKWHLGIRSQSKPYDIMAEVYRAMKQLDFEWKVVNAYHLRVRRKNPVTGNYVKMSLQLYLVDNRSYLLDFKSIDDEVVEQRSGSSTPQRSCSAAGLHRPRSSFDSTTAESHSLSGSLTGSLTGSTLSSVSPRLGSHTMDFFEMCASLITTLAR

Row | SMILES | ΔTm
23 | Nc1n[nH]c2nc3ccccc3nc12 [QUINOXALINE1] | -0.1 °C
24 | COc1nccc(-c2c(-c3ccc(F)cc3)ncn2[C@H]2CC[C@H](O)CC2)n1 | 0.7 °C
25 | CN(C)C[C@@H]1CCn2cc(c3ccccc32)C2=C(C(=O)NC2=O)c2cn(c3ccccc23)CCO1 [RUBOXISTAURIN] | 1.3 °C

Molecular target: Casein kinase I isoform gamma-3 (Homo sapiens) (UniProt Q9Y6M4)

Row | SMILES | ΔTm
26 | Nc1n[nH]c2nc3ccccc3nc12 [QUINOXALINE1] | 0.4 °C
27 | COc1nccc(-c2c(-c3ccc(F)cc3)ncn2[C@H]2CC[C@H](O)CC2)n1 | 1.2 °C
28 | CN(C)C[C@@H]1CCn2cc(c3ccccc32)C2=C(C(=O)NC2=O)c2cn(c3ccccc23)CCO1 [RUBOXISTAURIN] | 0.5 °C

Molecular target: Serine/threonine-protein kinase PAK 6 (Homo sapiens) (UniProt Q9NQU5)
Sequence (Q9NQU5 whole entry, looked up): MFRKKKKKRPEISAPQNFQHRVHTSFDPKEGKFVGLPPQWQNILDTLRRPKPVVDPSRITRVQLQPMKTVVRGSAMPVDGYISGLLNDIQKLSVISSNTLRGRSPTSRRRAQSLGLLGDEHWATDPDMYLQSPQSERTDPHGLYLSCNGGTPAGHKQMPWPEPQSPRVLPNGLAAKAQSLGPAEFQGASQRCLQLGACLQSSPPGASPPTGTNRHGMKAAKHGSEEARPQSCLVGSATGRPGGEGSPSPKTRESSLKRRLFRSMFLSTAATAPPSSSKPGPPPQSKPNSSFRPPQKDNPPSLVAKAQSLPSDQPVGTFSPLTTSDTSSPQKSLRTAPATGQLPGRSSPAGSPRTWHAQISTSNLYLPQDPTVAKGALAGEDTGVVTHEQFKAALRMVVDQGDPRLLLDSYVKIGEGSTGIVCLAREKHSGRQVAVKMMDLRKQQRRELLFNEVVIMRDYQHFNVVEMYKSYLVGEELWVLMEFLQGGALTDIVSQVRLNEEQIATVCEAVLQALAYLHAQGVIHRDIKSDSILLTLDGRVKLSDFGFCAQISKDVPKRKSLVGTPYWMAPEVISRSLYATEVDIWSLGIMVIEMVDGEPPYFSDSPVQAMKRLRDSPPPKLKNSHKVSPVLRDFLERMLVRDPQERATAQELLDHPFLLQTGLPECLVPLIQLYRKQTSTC

Row | SMILES | ΔTm
29 | Nc1n[nH]c2nc3ccccc3nc12 [QUINOXALINE1] | 0.6 °C
30 | COc1nccc(-c2c(-c3ccc(F)cc3)ncn2[C@H]2CC[C@H](O)CC2)n1 | -0.3 °C
31 | CN(C)C[C@@H]1CCn2cc(c3ccccc32)C2=C(C(=O)NC2=O)c2cn(c3ccccc23)CCO1 [RUBOXISTAURIN] | 0.8 °C

Molecular target: T2, Serine/threonine-protein kinase VRK3 (Homo sapiens) (UniProt Q8IV63)
T2 sequence (whole entry): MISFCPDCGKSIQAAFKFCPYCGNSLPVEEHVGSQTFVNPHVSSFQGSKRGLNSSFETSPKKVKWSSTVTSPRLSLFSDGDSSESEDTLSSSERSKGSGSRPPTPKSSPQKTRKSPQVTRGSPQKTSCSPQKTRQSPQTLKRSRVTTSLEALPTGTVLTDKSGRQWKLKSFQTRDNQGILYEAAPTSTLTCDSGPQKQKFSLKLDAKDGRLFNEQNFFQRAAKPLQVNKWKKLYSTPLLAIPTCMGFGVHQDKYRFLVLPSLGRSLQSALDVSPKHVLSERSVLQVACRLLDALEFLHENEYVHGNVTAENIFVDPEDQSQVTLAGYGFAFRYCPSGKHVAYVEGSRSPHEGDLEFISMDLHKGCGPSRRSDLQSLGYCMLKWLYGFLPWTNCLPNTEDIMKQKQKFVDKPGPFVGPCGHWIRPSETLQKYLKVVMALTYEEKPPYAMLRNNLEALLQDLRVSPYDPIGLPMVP

Row | SMILES | ΔTm
32 | Nc1n[nH]c2nc3ccccc3nc12 [QUINOXALINE1] | 0.4 °C
33 | COc1nccc(-c2c(-c3ccc(F)cc3)ncn2[C@H]2CC[C@H](O)CC2)n1 | -0.1 °C
34 | CN(C)C[C@@H]1CCn2cc(c3ccccc32)C2=C(C(=O)NC2=O)c2cn(c3ccccc23)CCO1 [RUBOXISTAURIN] | -0.3 °C

Molecular target: Serine/threonine-protein kinase Nek6 (Homo sapiens) (UniProt Q9HC98)
Sequence (Q9HC98 whole entry): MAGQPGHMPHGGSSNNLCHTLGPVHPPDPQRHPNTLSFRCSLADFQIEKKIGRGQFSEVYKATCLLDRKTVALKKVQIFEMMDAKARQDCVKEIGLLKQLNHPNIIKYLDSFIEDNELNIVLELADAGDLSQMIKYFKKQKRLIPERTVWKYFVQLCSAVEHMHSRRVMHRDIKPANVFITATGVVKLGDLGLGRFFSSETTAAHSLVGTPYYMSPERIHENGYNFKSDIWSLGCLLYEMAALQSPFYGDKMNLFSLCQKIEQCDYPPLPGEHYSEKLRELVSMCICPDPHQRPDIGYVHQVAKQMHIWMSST

Row | SMILES | ΔTm
35 | Nc1n[nH]c2nc3ccccc3nc12 [QUINOXALINE1] | -0.3 °C
36 | COc1nccc(-c2c(-c3ccc(F)cc3)ncn2[C@H]2CC[C@H](O)CC2)n1 | -0.3 °C
37 | CN(C)C[C@@H]1CCn2cc(c3ccccc32)C2=C(C(=O)NC2=O)c2cn(c3ccccc23)CCO1 [RUBOXISTAURIN] | -0.6 °C

Molecular target: T3, Mitogen-activated protein kinase kinase kinase 5 (Homo sapiens) (UniProt Q99683)
T3 sequence (whole entry): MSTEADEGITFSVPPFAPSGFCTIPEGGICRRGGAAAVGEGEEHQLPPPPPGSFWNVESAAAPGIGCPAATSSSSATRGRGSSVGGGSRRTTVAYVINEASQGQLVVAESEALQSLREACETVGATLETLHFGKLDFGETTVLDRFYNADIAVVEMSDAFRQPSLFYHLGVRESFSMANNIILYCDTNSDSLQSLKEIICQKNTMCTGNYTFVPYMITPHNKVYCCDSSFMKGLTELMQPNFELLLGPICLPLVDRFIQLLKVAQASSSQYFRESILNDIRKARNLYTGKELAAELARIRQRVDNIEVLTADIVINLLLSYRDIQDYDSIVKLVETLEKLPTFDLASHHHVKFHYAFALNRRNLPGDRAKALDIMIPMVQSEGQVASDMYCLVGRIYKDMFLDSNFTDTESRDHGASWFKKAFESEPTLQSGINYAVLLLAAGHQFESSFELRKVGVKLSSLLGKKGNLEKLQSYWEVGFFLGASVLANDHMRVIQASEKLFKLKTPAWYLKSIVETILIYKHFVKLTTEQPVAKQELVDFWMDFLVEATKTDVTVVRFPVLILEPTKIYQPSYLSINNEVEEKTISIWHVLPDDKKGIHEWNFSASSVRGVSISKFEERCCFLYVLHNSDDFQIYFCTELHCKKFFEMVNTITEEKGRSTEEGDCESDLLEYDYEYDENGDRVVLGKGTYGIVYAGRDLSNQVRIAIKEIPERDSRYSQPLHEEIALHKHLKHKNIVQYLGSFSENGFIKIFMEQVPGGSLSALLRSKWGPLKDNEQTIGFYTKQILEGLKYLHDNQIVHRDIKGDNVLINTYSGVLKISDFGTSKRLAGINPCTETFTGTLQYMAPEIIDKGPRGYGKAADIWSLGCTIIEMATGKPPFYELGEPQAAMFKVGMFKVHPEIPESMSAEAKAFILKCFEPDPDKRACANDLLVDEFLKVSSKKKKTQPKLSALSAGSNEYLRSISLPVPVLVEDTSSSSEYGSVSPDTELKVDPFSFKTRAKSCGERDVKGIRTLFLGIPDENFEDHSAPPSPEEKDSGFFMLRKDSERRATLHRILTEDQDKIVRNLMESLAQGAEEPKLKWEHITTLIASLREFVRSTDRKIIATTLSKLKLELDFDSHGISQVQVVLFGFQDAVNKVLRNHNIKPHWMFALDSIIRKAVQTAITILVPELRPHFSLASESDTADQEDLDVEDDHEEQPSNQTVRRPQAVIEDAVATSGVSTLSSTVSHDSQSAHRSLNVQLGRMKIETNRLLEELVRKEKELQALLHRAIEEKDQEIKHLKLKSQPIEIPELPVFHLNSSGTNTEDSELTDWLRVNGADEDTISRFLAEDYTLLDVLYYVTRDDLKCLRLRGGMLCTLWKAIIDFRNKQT

Row | SMILES | ΔTm
38 | Nc1n[nH]c2nc3ccccc3nc12 [QUINOXALINE1] | 2.6 °C
39 | CN(C)C[C@@H]1CCn2cc(c3ccccc32)C2=C(C(=O)NC2=O)c2cn(c3ccccc23)CCO1 [RUBOXISTAURIN] | 0.1 °C

Molecular target: Serine/threonine-protein kinase 38 (Homo sapiens) (UniProt Q15208)
Sequence (Q15208 2-465 limits assumed): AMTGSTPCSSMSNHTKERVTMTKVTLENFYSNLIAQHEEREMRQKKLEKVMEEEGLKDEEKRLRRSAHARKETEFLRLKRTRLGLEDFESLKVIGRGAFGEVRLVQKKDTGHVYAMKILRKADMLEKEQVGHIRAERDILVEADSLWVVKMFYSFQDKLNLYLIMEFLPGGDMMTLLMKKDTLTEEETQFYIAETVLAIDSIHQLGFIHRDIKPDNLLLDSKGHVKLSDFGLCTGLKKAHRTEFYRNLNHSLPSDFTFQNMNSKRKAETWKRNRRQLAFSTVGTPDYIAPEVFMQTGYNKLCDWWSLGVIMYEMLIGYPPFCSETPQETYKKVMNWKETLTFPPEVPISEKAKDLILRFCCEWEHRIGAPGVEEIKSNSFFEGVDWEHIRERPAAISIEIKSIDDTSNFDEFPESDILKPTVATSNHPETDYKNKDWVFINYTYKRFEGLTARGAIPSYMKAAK

Row | SMILES | ΔTm
40 | Nc1n[nH]c2nc3ccccc3nc12 [QUINOXALINE1] | 0.4 °C
41 | COc1nccc(-c2c(-c3ccc(F)cc3)ncn2[C@H]2CC[C@H](O)CC2)n1 | 0.4 °C
42 | CN(C)C[C@@H]1CCn2cc(c3ccccc32)C2=C(C(=O)NC2=O)c2cn(c3ccccc23)CCO1 [RUBOXISTAURIN] | 0 °C

— ChEMBL document CHEMBL1145498, “A systematic interaction map of validated kinase inhibitors with Ser/Thr kinases” (Proc Natl Acad Sci U S A, 2007)
